# Data from patent EP2923697B1, “Extract and novel isolated compound from Aspergillus terreus for treatment of mouth microbial infections” (King Saud University, priority 2014, dated 2015).
# Legend:
# Assay type in all cases: cell-based
# [1] = system: Candida albicans; experiment: Antimicrobial activity, well diffusion method; settings: 5mg/ml of sample around well (6 mm), mean ± Standard deviation
# Text: (§1) Mouth microbial representatives including unicellular fungi; Candida albicans (RCMB 05382), Candida glabrata (RCMBA 05386), Candida parapsilosis (RCMBA 06002), Candida tropicalis (RCMB 05384), Gram-positive bacteria; Lactobacillus acidophilus (RCMBA 4267), Streptococcus gordonii (RCMBA 2004), Streptococcus mutans (RCMBA 4131), and Gram-negative bacteria; Pseudomonas aeruginosa (RCMBA 1002) were obtained from the Regional Center for Mycology and Biotechnology (RCMB), Al-Azhar University, Cairo, Egypt, as test organisms. Antimicrobial activity was determined by the well diffusion method. Petri plates contained 20 ml of Nutrient (for bacteria) or Malt extract (for fungi). Agar medium were seeded with 1-3 day cultures of microbial inoculums (1-2 X 10^7 CFU/ml). […] The assessment of antimicrobial activity was based on measurement of the diameter of the inhibition zone formed around the well.
# [2] = system: Candida glabrata; experiment: Antimicrobial activity, well diffusion method; settings: 5mg/ml of sample around well (6 mm), mean ± Standard deviation
# Text: as §1
# [3] = system: Candida parapsilosis; experiment: Antimicrobial activity, well diffusion method; settings: 5mg/ml of sample around well (6 mm), mean ± Standard deviation
# Text: as §1
# [4] = system: Candida tropicalis; experiment: Antimicrobial activity, well diffusion method; settings: 5mg/ml of sample around well (6 mm), mean ± Standard deviation
# Text: as §1
# [5] = system: Candida glabrata; experiment: MIC determination, micro-dilution method; settings: Nakaseomyces glabratus, read-out: Minimum Inhibitory Concentration
# Text: (§2) Mouth microbial representatives including unicellular fungi; Candida albicans (RCMB 05382), Candida glabrata (RCMBA 05386), Candida parapsilosis (RCMBA 06002), Candida tropicalis (RCMB 05384), Gram-positive bacteria; Lactobacillus acidophilus (RCMBA 4267), Streptococcus gordonii (RCMBA 2004), Streptococcus mutans (RCMBA 4131), and Gram-negative bacteria; Pseudomonas aeruginosa (RCMBA 1002) were obtained from the Regional Center for Mycology and Biotechnology (RCMB), Al-Azhar University, Cairo, Egypt, as test organisms.
# (§3) The minimum inhibitory concentration (MIC) was determined by micro-dilution method using serially diluted (2 folds) extract and isolated compound. MIC of the extract was determined by dilution of extract and isolated compound of concentrations of 0.0-1000 µg/ml. Equal volume of each extract and nutrient broth were mixed in a test tube. Specifically 0.1 ml of standardized inoculum (1-2 X 10^7 CFU/ml) was added in each tube. The tubes were incubated at 37°C for 24-48 h. Two control tubes containing the growth medium, saline and the inoculum were maintained for each test batch. The lowest concentration (highest dilution) of the extract that produced no visible microbial growth (no turbidity) when compared with the control tubes were regarded as MIC.
# [6] = system: Candida parapsilosis; experiment: MIC determination, micro-dilution method; settings: Lodderomyces parapsilosis, read-out: Minimum Inhibitory Concentration
# Text: as §2, §3
# [7] = system: Candida tropicalis; experiment: MIC determination, micro-dilution method; settings: read-out: Minimum Inhibitory Concentration
# Text: as §2, §3
# [8] = system: Candida albicans; experiment: In-vitro activity in combination with Coe-Comfort tissue conditioner, CFU count; settings: for No. colony-forming units (CPU): Candida albicans, mixed with Coe-Comfort
# Procedure: The Coe-Comfort tissue conditioner was mixed according to the proportions indicated by the manufacturers. In detail, Coe-comfort™ tissue conditioner is formed by dispensing 5 ml of Coe-comfort liquid into a disposable mixing cup. The red measure level is filled with about 6 g of Coe-comfort powder and is then slowly added to the liquid. The obtained mixture is blended for 30 seconds and setted aside for approximately one minute until it flows sluggishly from a spatula. Using less liquid gives a thicker, faster setting mix and vice versa. […] The extract and isolated compound/conditioner mixture was homogenized in a sterile glass beaker for 30 seconds. Immediately afterwards, the conditioning powder was added and mixed for 40 seconds and then poured onto a Petri plate. Once the mixture solidified, the surface was covered with 4 ml of Sabouraud agar, and after 30 minutes, inoculated with 20 µl of an appropriate dilution of Candida. The plates were incubated at 37°C for 24 hours and then the CFUs were counted. The experiment was performed in triplicate. For the conditioner Coe-Comfort, the control was unmodified conditioner.
smiles,measurement,setting,value
"C[C@@H]1[C@H](O)[C@@H](C)/C=C/C=C/C=C/C=C/C=C/C=C/C=C/[C@H](O[C@@H]2O[C@H](C)[C@@H](O)[C@H](N)[C@@H]2O)C[C@@H]2O[C@](O)(C[C@@H](O)C[C@@H](O)[C@H](O)CC[C@@H](O)C[C@@H](O)CC(=O)O[C@H]1C)C[C@H](O)[C@H]2C(=O)O [Amphotericin B, reference compound]",Diameter of inhibition zone,[1],21.3± 0.14 mm
same,Diameter of inhibition zone,[2],20.4± 0.87 mm
same,Diameter of inhibition zone,[3],23.2 ± 0.53 mm
same,Diameter of inhibition zone,[4],24.6± 0.27 mm
same,MIC,[5],1.95 µg/mL
same,MIC,[6],0.49 µg/mL
same,MIC,[7],0.12 µg/mL
same,concentration giving total growth inhibition,"[8]; C. albicans, in combination with Coe-comfort tissue conditioner",7.81 µg/mL
same,No. colony-forming units (CPU),[8]; concentration 000.49 µg/ml,9.1 x 10^4
same,No. colony-forming units (CPU),[8]; concentration 000.98 µg/ml,8.9 x 10^4
same,No. colony-forming units (CPU),[8]; concentration 001.95 µg/ml,9.3 x 10^3
same,No. colony-forming units (CPU),[8]; concentration 003.90 µg/ml,8.1 x 10^2
same,No. colony-forming units (CPU),[8]; concentration 007.81 µg/ml,00.00
same,No. colony-forming units (CPU),[8]; concentration 015.63 µg/ml,00.00
same,No. colony-forming units (CPU),[8]; concentration 031.25 µg/ml,00.00
same,No. colony-forming units (CPU),[8]; concentration 062.50 µg/ml,00.00
